Results from patent US7968109B2, “Liquid compositions for treating plant propagation materials” (Syngenta Crop Protection Inc., priority 2005, dated 2011).

Experiments:
[1] = Selective loading of active ingredient on cut side and skin side of tuber; type: physicochemical, potato; conditions: analyte fludioxonil
Excerpt: Generally, treatment of potato tubers and/or cut seeds with liquid pesticides results in the majority of the pesticide settling on the cut side of the seed rather than on the skin side of the seed. Such affinity for the cut side is thought to be based on the pesticides' affinity for water. […] Rather, the pesticidal action is more useful on the skin side of the tuber, where the eyes are present and where germination occurs.
Although not wanting to be bound by any particular theory, it is thought that the nonpolar nature of the waxes and silicas present in the formulations of the present invention have affinity for the skin side, causing a greater loading of the active ingredients on the skin side.

[2] = test system: Colorado Potato Beetles; assay: Control of Colorado Potato Beetles on potatoes (defoliation); type: in vivo
Description: Comparative trials were conducted to show the protection of the formulation described herein against different insect pests.

N#Cc1c[nH]cc1-c1cccc2c1OC(F)(F)O2 [Fludioxonil]
Amount of fludioxonil present on cut side of tuber ([1]; cut side): 21
Amount of fludioxonil present on skin side of tuber ([1]; skin side): 21

O=[N+]([O-])NC1=NCCN1Cc1ccc(Cl)nc1 [Imidacloprid, imidacloprid]
% Defoliation ([2]; 102 days after planting (Wash. State)): 9%
% Defoliation ([2]; 105 days after planting (Idaho)): 0%
